For two compounds, IC50 and melting point results are on record in US6689783B2, “Aryl oxime-piperazines useful as CCR5 antagonists” (priority 2001, dated 2004).

Series [1] concerns U87 cells stably expressing CD4 and the chemokine receptor CCR5. Put plainly: HIV-1 entry assay (luciferase reporter virions). In kind it is cell-based. As to conditions: Human immunodeficiency virus 1, U87/CD4/CCR5, read-out: Viral Entry IC50. The procedure: Several types of assays can be used to determine the CCR5 inhibitory and antagonistic activity of the compounds of the invention. Some are, for example, the CCR5 Membrane Binding Assay, the HIV-1 Entry Assay, HIV-1 Replication Assay, the Calcium Flux Assay, the GTPγS Binding Assay (secondary membrane binding assay) and the Chemotaxis Assay. Compounds of this invention were evaluated for their ability to inhibit CCR5 receptor mediated viral entry using an HIV-1 entry assay, which is described below:
Replication defective HIV-1 reporter virions are generated by cotransfection of a plasmid encoding the NL4-3 strain of HIV-1 (which has been modified by mutation of the envelope gene and introduction of a luciferase reporter plasmid) along with a plasmid encoding one of several HIV-1 envelope genes as described by Connor et al, Virology, 206 (1995), 935-944. Following transfection of the two plasmids by calcium phosphate precipitation, the viral supernatants are harvested on day 3 and a functional viral titer determined. These stocks are then used to infect U87 cells stably expressing CD4 and the chemokine receptor CCR5 which have been preincubated with or without test compound. Infections are carried out for 2 hours at 37° C., the cells washed and media replaced with fresh media containing compound. The cells are incubated for 3 days, lysed and luciferase activity determined. […]
(Reporter assays use an easily measured gene product as a stand-in for the process of interest.)

SMILES strings stand for the structures. Counter-ions that a name gives are not always drawn.

Broadly, the IC50 is the midpoint of a concentration-inhibition curve. As for `CCON=C(c1ccc(C(F)(F)F)cc1)N1CCN(C2(C)CCN(C(=O)c3c(C)ncnc3C)CC2)C[C@@H]1C` [Ih, 1-[(4,6-dimethyl-5-pyrimidinyl)carbonyl]-4-[4-[(ethoxyimino)[4-(trifluoromethyl)phenyl]methyl]-3(s)-methyl-1-piperazinyl]-4-methylpiperidine], the IC50 in series [1] is 0.0165 µM.
As usually defined, the melting point is the temperature of the solid-liquid transition. As for `CCON=C(c1ccc(OC(F)(F)F)cc1)N1CCN(C2(C)CCN(C(=O)c3c(C)ncnc3C)CC2)C[C@@H]1C` (as salt: HCl), the melting point was 165 to 169 °C.
